“Also recorded” adds a separate entry of the source.
Tests used:
TTR (Transthyretin) = TTR (Transthyretin) (Homo sapiens, UniProt P02766); test: TTR displacement assay; type: binding
Source text: Determination of the optimal or preferred density of the thyroid hormone or thyroid hormone analog bound to the nanoparticles is within the routine skill level in the art. For example, those skilled in the art will recognize that TTR (Transthyretin) can be used as the basis for a displacement assay in order to quantify the amount of Tetrac bound to nanoparticles. Specifically, such assays involve in vitro displacement of radiolabeled T4 from TTR by Tetrac or Tetrac nanoparticles (Tetrac NP). […] Amounts of nanoparticulate Tetrac in unknown suspensions (i.e., biologic fluids) are then calculated from the displacement of radiolabeled T4. […] The tubes are mixed and incubated for 16 hours at 4° C. The bound and free hormones are separated by adding dextran-coated charcoal (DCC) to each tube, which is then centrifuged at 12,000×g for 2 min. at 4° C. Bound [I^125] T4 in the supernatant is measured by scintillation counting.

[1] = system: SKN-SH, SaOS2 and MCF7 cells, drug-sensitive and -resistant; test: MTT cell viability of drug-sensitive and drug-resistant cancer cells; type: cell-based; conditions: 4 days
Method: Drug-sensitive and -resistant SKN-SH (FIGS. 13C-D), SaOS2 (FIGS. 13A-B), and MCF7 (FIGS. 13E-F) cells were subjected to treatment with increasing concentrations of Tetrac or Doxirubicin over a period of 4 days. Cell viability was then measured by MTT assay. The data represent the average of 4 determinations±SE.
Doxorubicin resistant SKN-SH/R, MCF7/R and SaOS2/R cells were subjected to treatment with Tetrac either alone or in combination with each of doxorubicin (Dox), etoposide (Etop), cisplatin (Cisp), or trichostatin A (TSA) at the indicated concentrations, After 4 days in cell viability was determined by the MTT assay and the data represented as average of 3 determinations±SE.

[2] = system: DNA double-strand breaks in U87MG cells; test: U87MG neutral comet assay of DNA double-strand breaks; type: cell-based, human
Method: For the comet assay studies of induction and repair of DSBs in U87MG cells, cells were treated as described above. However, for the single dose induction of DSBs doses ranged from 0-30 Gy, and for the study of the repair of DSBs in irradiated cells, a large single dose of 60 Gy requiring approximately 1 h of irradiation time was given. Appropriate temperature controls (on ice) were run to insure that no decrement in survival was produced by the 1 h exposure to 0° C.
U87MG cells on plastic slides were exposed to 2 nM Tetrac for 1 h at 37° C. These slides were then placed on crushed ice and irradiated with doses from 0 to 75 Gy. Slides were immersed in lysing solution at 50° C. for 2 hours. Slides were washed, and placed into a gel electrophoresis unit. Electrophoresis was carried out at 0.66 V/cm for 25 min. Cells were stained with ethidium bromide and image analysis was done using an epifluoresence microscope at a total magnification of 400×. We also used an excitation filter of 515-535 nm and a barrier filter at 590 nm. The mean tail moment (TM) which is expressed in arbitrary units was then calculated. TM was calculated using a CCD camera and software. Approximately 350 comets were analyzed per condition.

human MTC cells = test: RNA microarray of h-MTC cells; type: cell-based
Method: Technical aspects of microarray studies, stringent quality control of microarray studies and statistic analysis of gene expression were as described previously. […] In brief, the array hybridization and processing, data retrieval and the analysis were carried out with standard sets of Affymetrix (Santa Clara, Calif.) equipment, software and protocols in an Affymetrix microarray core facility. RNA was extracted from cell cultures of two independent biological replicates of each experimental condition and analyzed for sample purity and integrity, using BioAnalyzer instrumentation (Agilent, Santa Clara, Calif.). Expression analysis of 54,675 transcripts was conducted for each sample, using Affymetrix HG-U133A Plus 2.0 arrays. Data retrieval and analysis was completed by MAS5.0 software. Concordant changes of gene expression for each experimental condition were determined at the statistical threshold P value, <0.01 (two-tailed t test).

[3] = system: human medullary thyroid carcinoma cells; test: Confocal distribution of Cy3-labeled Tetrac vs Tetrac NP; type: cell-based; conditions: around 2 h
Source text: Penicillin streptomycin (1%) was present in both culture media.

[4] = system: chick chorioallantoic membrane (CAM) blood vessel branch points; test: Chick chorioallantoic membrane (CAM) model of angiogenesis; type: in vivo
Method: In vivo neovascularization was examined by methods described previously. 9-12 Ten-day-old chick embryos were purchased from SPAFAS (Preston, Conn.) and incubated at 37° C. with 55% relative humidity. A hypodermic needle was used to make a small hole in the shell concealing the air sac, and a second hole was made on the broad side of the egg, directly over an avascular portion of the embryonic membrane that was identified by candling. A false air sac was created beneath the second hole by the application of negative pressure at the first hole, causing the CAM to separate from the shell. […] Thyroid hormone, hormone analogs, FGF2 or control solvents, and inhibitors were then applied to the disks and the disks allowed to dry. The disks were then suspended in PBS and placed on growing CAMs. […] At 24 hours, the MAPK cascade inhibitor PD 98059 was also added to CAMs topically by means of the filter disks. […] The number of vessel branch points contained in a circular region equal to the area of each filter disk were counted. […] In addition, each experiment was performed 3 times. The resulting angiogenesis index is the mean±SEM of new branch points.

GL261 tumor cells = test: GL261 44° C. hyperthermia; type: cell-based, murine; conditions: 44° C. plus Tetrac is the equivalent of 45° C. without Tetrac
Method: Additionally, Tetrac sensitizes GL261 cells in hyperthermic conditions. Graded heat treatment of GL261 tumor cells with 44° C. was given, without and with Tetrac. Tetrac increased cell killing as compared to control cells alone, by the equivalent of about 1° C. (i.e., 44° C. plus Tetrac is the equivalent of 45° C. without Tetrac). (See FIG. 63).

SKN-SH/R cells = test: Senescence and apoptosis in drug resistant cells; type: cell-based; conditions: 24 h
Method: In FIG. 16A, SKN-SH/R cells were subjected to treatment doxorubicin (Dox) alone, Tetrac alone, or the combination of both for 24 h. Expression of p21/WAF1, cleaved caspase-3 (Cl-Casp-3) and beta action were measured by Western blot using specific antibodies. In FIG. 16B, the cells were seeded in 24 well plates and treated as mentioned above and expression of the senescence associated beta galactosidase (SA-β-Gal.) was assayed as described in the methods section. In FIG. 16C, the cells were seeded on cover slips and treated with the drugs as above for 24 h, after which they were fixed and stained with Hoechst and the percentage of positive cells graphed. The data represent average of 3 determinations±SE.

O=C(O)Cc1cc(I)c(Oc2cc(I)c(O)c(I)c2)c(I)c1 [Tetrac, tetraiodothyroacetic acid]
affinity of TTR relative to that for T4 (TTR (Transthyretin)): 100 times | anti-proliferative activity against drug-sensitive vs drug-resistant cells (in words) ([1]; MTT): equivalent anti-proliferative activity | cellular responses to doxorubicin, etoposide, cisplatin and TSA when combined with Tetrac (in words) ([1]; doxorubicin resistant SKN-SH/R, MCF7/R and SaOS2/R cells): significantly enhanced | effect on the slope of the mean tail moment in graded single dose studies (in words) [2]: did not affect the slope of the mean tail moment | sensitization factor from mean tail moment at 0 Gy [2]: 2.2 | inhibition of repair of DNA double strand breaks / decrease of repair rate ([2]; [(1.00−slope Tetrac/slope control)×100]): 72.5% | slope of time-dependent DSB repair ([2]; after 30 Gy of x-rays, control −4.36): −1.20 | expression of VEGFA (in words) (human MTC cells): significantly decreased | expression of genes associated with induction of apoptosis: CASP2, DFFA, FAF1, CASP8AP2 (in words) (human MTC cells): caused expression | expression of thrombospondin (THBS1) gene (in words) (human MTC cells): increase | distribution within h-MTC cells (in words) [3]: distributed in the cytoplasm | effect on angiogenesis stimulated by T4-agarose (in words) ([4]; T4-agarose 0.1 μmol/L + Tetrac): inhibited | effect on angiogenesis stimulated by T4 (in words) ([4]; Tetrac 0.1 μmol/L, T4 0.1 μmol/L): inhibited the action of T4 | effect of Tetrac alone on angiogenesis (in words) ([4]; Tetrac alone): had no effect on angiogenesis; also recorded: does not stimulate angiogenesis | increase in cell killing, temperature equivalent (GL261 tumor cells): about 1 °C | doxorubicin-induced proliferation arrest (p21/WAF1), SA-β-Gal and cell death (in words) (SKN-SH/R cells): dramatically enhanced

Reference: US8802240B2, “Uses of formulations of thyroid hormone analogs and nanoparticulate forms thereof to increase chemosensitivity and radiosensitivity in tumor or cancer cells” (Nanopharmaceuticals LLC, priority 2011, dated 2014)
